Experimental findings from patent US8119633B2, “Substituted sulfonamide compounds” (Gruenenthal GmbH, priority 2007, dated 2012) are described below.

In general, inhibition refers to the change of the read-out against control, counted positive when it falls.

Experiment [1] addresses T1, human bradykinin receptor 1 (B1R) (Homo sapiens, UniProt P46663).
T1 construct: expressed in transfected cells; host or cells: CHO K1 cells
T1 sequence (P46663 1-353): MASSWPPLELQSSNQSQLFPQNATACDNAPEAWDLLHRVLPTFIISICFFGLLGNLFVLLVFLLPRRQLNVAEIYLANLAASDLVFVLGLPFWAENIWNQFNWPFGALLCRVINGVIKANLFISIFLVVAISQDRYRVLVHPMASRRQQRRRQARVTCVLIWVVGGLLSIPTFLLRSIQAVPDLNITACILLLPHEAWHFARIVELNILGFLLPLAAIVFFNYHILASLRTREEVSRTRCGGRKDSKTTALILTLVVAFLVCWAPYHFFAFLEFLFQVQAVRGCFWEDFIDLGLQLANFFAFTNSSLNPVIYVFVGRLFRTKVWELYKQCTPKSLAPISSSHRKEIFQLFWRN
Briefly: Functional study on the bradykinin receptor 1 (B1R), human: FLIPR Ca2+ influx assay. As to conditions: test substance 10 μM, CHO K1 cells transfected with human B1R, Lys-Des-Arg9-bradykinin at EC80, Ca2+ influx (Fluo-4, FLIPR); for inhibition at 10 µM: read-out: B1R antagonism, human [10 μM] % inhibition. In kind it is cell-based. A digest of the protocol: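 CHO K1 cells stably expressing human B1R were loaded with Fluo-4, and Ca2+ fluorescence was read on FLIPR (ex 488/em 540 nm). Compound was added first (10 μM for % activation against Lys-Des-Arg9-bradykinin ≥0.5 nM). After 10-20 min, Lys-Des-Arg9-bradykinin was added at EC80 for % inhibition; IC50 came from concentration series, n=2-3, N≥2.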

In experiment [2] the target is T2, bradykinin receptor 1 (B1R) of the rat (Rattus norvegicus, UniProt P97583).
T2 construct: expressed in transfected cells; host or cells: CHO K1 cells
T2 sequence (P97583 1-337): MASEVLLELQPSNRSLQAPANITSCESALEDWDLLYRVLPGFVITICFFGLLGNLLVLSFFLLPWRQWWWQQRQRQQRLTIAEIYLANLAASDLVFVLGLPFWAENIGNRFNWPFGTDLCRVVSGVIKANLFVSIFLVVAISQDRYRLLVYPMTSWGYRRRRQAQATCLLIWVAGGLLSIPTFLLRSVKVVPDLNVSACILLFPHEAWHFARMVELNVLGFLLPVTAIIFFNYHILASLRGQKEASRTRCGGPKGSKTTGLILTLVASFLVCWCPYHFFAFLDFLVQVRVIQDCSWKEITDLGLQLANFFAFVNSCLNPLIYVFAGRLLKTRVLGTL
As to the kind of experiment: Functional study on the bradykinin receptor 1 (B1R), rat: FLIPR Ca2+ influx assay. In kind it is cell-based. As to conditions: test substance 10 μM, CHO K1 cells transfected with rat B1R, Des-Arg9-bradykinin at EC80, Ca2+ influx (Fluo-4, FLIPR); for inhibition at 10 µM: read-out: B1R antagonism, rat [10 μM] % inhibition. A digest of the protocol: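 CHO K1 cells stably expressing rat B1R, Fluo-4-loaded, read on FLIPR (ex 488/em 540 nm, peak fluorescence). Test substances added first (agonism vs 10 μM Des-Arg9-bradykinin), then after 10-20 min Des-Arg9-bradykinin at EC80; % inhibition and IC50 from concentration series, n=2-3, N≥2.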

Experiment [3] deals with T3, human μ-opiate receptor (Homo sapiens, UniProt P35372).
T3 construct: purchased PerkinElmer Life Sciences, Zaventem, Belgium RB-HOM; host or cells: CHO-K1 cells (membrane preparation)
T3 sequence (P35372 whole entry): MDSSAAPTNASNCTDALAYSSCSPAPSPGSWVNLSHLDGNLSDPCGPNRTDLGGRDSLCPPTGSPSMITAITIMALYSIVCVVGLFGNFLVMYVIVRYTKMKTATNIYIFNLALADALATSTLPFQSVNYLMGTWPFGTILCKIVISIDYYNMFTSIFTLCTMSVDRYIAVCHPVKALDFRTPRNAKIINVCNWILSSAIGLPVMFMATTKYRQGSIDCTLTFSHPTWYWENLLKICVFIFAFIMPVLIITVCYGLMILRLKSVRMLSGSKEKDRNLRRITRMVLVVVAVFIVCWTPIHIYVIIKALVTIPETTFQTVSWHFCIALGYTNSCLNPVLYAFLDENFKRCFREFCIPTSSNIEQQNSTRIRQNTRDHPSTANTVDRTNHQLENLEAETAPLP
Briefly: Affinity for the human μ-opiate receptor ([3H]-naloxone displacement, SPA). As to conditions: test substance 1 μmol/l, inhibition of specific [3H]-naloxone binding, CHO-K1 receptor membrane preparation; for inhibition at 1 µM: read-out: μ-Opioid receptor [1 μM] % inhibition. As for the experimental part:
Studies of the Effectiveness of the Compounds According to the Invention Method for determining the affinity for the human μ-opiate receptor
The receptor affinity for the human μ-opiate receptor is determined in a homogeneous batch on microtitre plates. To this end, serial dilutions of the substances to be tested are incubated for 90 minutes at room temperature with a receptor membrane preparation (15-40 μg of protein/250 μl of incubation batch) of CHO-K1 cells, which express the human μ-opiate receptor (RB-HOM receptor membrane preparation from PerkinElmer Life Sciences, Zaventem, Belgium), in the presence of 1 nmol/l of the radioactive ligand [^3H]-naloxone (NET719, PerkinElmer Life Sciences, Zaventem, Belgium) and 1 mg of WGA-SPA beads (wheatgerm agglutinin SPA beads from Amersham/Pharmacia, Freiburg, Germany) in a total volume of 250 μl. The incubation buffer used is 50 mmol/l of Tris-HCl supplemented with 0.06 wt. % bovine serum albumin. In order to determine non-specific binding, 100 μmol/l of naloxone is additionally added. When the ninety-minute incubation time has ended, the microtitre plates are centrifuged off for 20 minutes at 1000 g and the radioactivity is measured in a β-counter (Microbeta-Trilux, PerkinElmer Wallac, Freiburg, Germany). The percentage displacement of the radioactive ligand from its binding to the human μ-opiate receptor at a concentration of the test substances of 1 μmol/l is determined and stated as the percentage inhibition of specific binding. On the basis of the percentage displacement by different concentrations of the test substances, IC50 inhibitory concentrations, which effect 50% displacement of the radioactive ligand, are calculated. Ki values for the test substances are obtained by conversion by means of the Cheng-Prusoff equation.

SMILES strings stand for the structures.

Turning to `COc1cc(C)c(S(=O)(=O)N(C)CCCNC(=O)NC2CCC(C(c3ccccc3)N(C)C)CC2)c(C)c1C` (stereo not drawn) [Example 1, N—(3-{3-[4-(Dimethylaminophenylmethyl)cyclohexyl]ureido}propyl)-4-methoxy-2,3,6,N-tetramethylbenzenesulfonamide], the inhibition at 10 µM was 71.5% in experiment [1] and 56% in experiment [2]. Also, the inhibition at 1 µM in experiment [3] is 94%.

In the case of `COc1cc(C)c(S(=O)(=O)N(C)CCCNC(=O)NCC2CCC(C(c3ccccc3)N(C)C)CC2)c(C)c1C` (stereo not drawn) [Example 2], the “B1R antagonism, human [10 μM] % inhibition” value in experiment [1] amounted to 55.6%. Also, in experiment [2], the “B1R antagonism, rat [10 μM] % inhibition” value is given as 43%. Besides, in experiment [3], the “μ-Opioid receptor [1 μM] % inhibition” value is 97%.

On to `COc1cc(C)c(S(=O)(=O)N(C)CCCNC(=O)NC2CCC(C(c3ccccc3)N3CCCC3)CC2)c(C)c1C` (stereo not drawn) [Example 3, 4-Methoxy-2,3,6,N-tetramethyl-N—(3-{3-[4-(phenylpyrrolidin-1-ylmethyl) -cyclohexyl]-ureido}propyl)benzenesulfonamide], for which the inhibition at 10 µM is 80.8% in experiment [1] and 58% in experiment [2]. Moreover, the inhibition at 1 µM in experiment [3] came to 71%.

In the case of `CN(C)C(c1ccccc1)C1CCC(NC(=O)CCCCN(C)S(=O)(=O)c2c(Cl)cc(Cl)cc2Cl)CC1` (stereo not drawn) [Example 5, N—(4-((Dimethylamino)(phenyl)methyl)cyclohexyl)-5-(2,4,6-trichloro-N-methylphenylsulfonamido)pentanamide], the inhibition at 10 µM in experiment [1] was determined as 101%; in experiment [2], 60%. In addition, in experiment [3], the inhibition at 1 µM amounted to 89%.

For the compound `CN(CCCCC(=O)NC1CCC(C(c2ccccc2)N2CCCCC2)CC1)S(=O)(=O)c1c(Cl)cc(Cl)cc1Cl` (stereo not drawn) [Example 6, N—(4-(Phenyl(piperidin-1-yl)methyl)cyclohexyl)-5-(2,4,6-trichloro-N-methylphenylsulfonamido)pentanamide], the inhibition at 10 µM was 75.1% in experiment [1] and 41% in experiment [2]. The inhibition at 1 µM in experiment [3] was found to be 29%.

With `CN(C)C(c1ccccc1)C1CCC(CNC(=O)CCCCN(C)S(=O)(=O)c2c(Cl)cc(Cl)cc2Cl)CC1` (stereo not drawn) [Example 7, N—((4-((Dimethylamino)(phenyl)methyl)cyclohexyl)methyl)-5-(2,4,6-trichloro-N -methylphenylsulfonamido)pentanamide], the values for the inhibition at 10 µM in experiment [1] and in experiment [2] were 102% and 59%, respectively. In addition, the inhibition at 1 µM in experiment [3] was found to be 96%.

On to `CN(C)C(c1ccccc1)C1CCC(CNC(=O)CC2CCCCN2S(=O)(=O)c2cccc(C(F)(F)F)c2)CC1` (stereo not drawn) [Example 8, N—((4-((Dimethylamino)(phenyl)methyl)cyclohexyl)methyl)-2-(1-(3-(trifluoromethyl)phenylsulfonyl)piperidin-2-yl)acetamide], for which the inhibition at 10 µM in experiment [1] was 71.4%; in experiment [2], 9%. Also, the inhibition at 1 µM in experiment [3] amounted to 94%.

Regarding `O=C(CC1C(=O)Nc2ccccc2N1S(=O)(=O)c1ccc(Cl)c(Cl)c1)NC1CCC(C(c2ccccc2)N2CCOCC2)CC1` (stereo not drawn) [Example 54, 2-[1-(3,4-dichloro-benzenesulfonyl)-3-oxo-1,2,3,4-tetrahydro-quinoxalin-2-yl]-N-[4-(morpholin-4-yl-phenyl-methyl)-cyclohexyl]-acetamide], the inhibition at 10 µM in experiment [1] turned out to be 105%; in experiment [2] it was 44%. Further, the inhibition at 1 µM in experiment [3] was determined as 12%.

As to `O=C(CC1C(=O)NCCN1S(=O)(=O)c1ccc(Cl)cc1Cl)NCC1CCC(C(c2ccccc2)N2CCOCC2)CC1` (stereo not drawn) [Example 55, 2-[1-(2,4-dichloro-benzenesulfonyl)-3-oxo-piperazin-2-yl]-N-[4-(morpholin-4-yl-phenyl-methyl)-cyclohexylmethyl]-acetamide], the inhibition at 10 µM came to 103% in experiment [1] and 26% in experiment [2]. Also, the inhibition at 1 µM in experiment [3] came out at 24%.

With `O=C(CC1C(=O)NCCN1S(=O)(=O)c1ccc(Cl)cc1Cl)NCC1CCC(C(CCc2ccccc2)N2CCOCC2)CC1` (stereo not drawn) [Example 56, 2-[1-(2,4-dichloro-benzenesulfonyl)-3-oxo-piperazin-2-yl]-N-[4-(1-morpholin-4-yl-3-phenyl-propyl)-cyclohexylmethyl]-acetamide], the figures for the inhibition at 10 µM in experiment [1] and in experiment [2] were 104% and 20%, respectively. Moreover, in experiment [3], the inhibition at 1 µM came out at 11%.

As to `O=C(CC1C(=O)NCCN1S(=O)(=O)c1ccc(Cl)cc1Cl)NCC1CCC(C(CCc2ccccc2)N2CCCC2)CC1` (stereo not drawn) [Example 57, 2-[1-(2,4-dichloro-benzenesulfonyl)-3-oxo-piperazin-2-yl]-N-[4-(3-phenyl-1-pyrrolidin-1-yl-propyl)-cyclohexylmethyl]-acetamide], the inhibition at 10 µM turned out to be 104% in experiment [1] and 27% in experiment [2]. The inhibition at 1 µM in experiment [3] stood at 25%.

Turning to `O=C(CC1C(=O)NCCN1S(=O)(=O)c1ccc(Cl)cc1Cl)NCC1CCC(C(c2ccccc2)N2CCCC2)CC1` (stereo not drawn) [Example 58, 2-[1-(2,4-dichloro-benzenesulfonyl)-3-oxo-piperazin-2-yl]-N-[4-(phenyl-pyrrolidin-1-yl-methyl)-cyclohexylmethyl]-acetamide], the inhibition at 10 µM worked out at 104% in experiment [1] and 11% in experiment [2]. In experiment [3], the inhibition at 1 µM is 70%.

With `O=C(CC1C(=O)NCCN1S(=O)(=O)c1ccc(Cl)cc1Cl)NC1CCC(C(CCc2ccccc2)N2CCCCC2)CC1` (stereo not drawn) [Example 59, 2-[1-(2,4-dichloro-benzenesulfonyl)-3-oxo-piperazin-2-yl]-N-[4-(3-phenyl-1-piperidin-1-yl-propyl)-cyclohexyl]-acetamide], the values for the inhibition at 10 µM in experiment [1] and in experiment [2] were 104% and 27%, respectively. Moreover, the inhibition at 1 µM in experiment [3] came to 61%.

As to `O=C(CC1C(=O)NCCN1S(=O)(=O)c1ccc(Cl)cc1Cl)NC1CCC(C(CCc2ccccc2)N2CCOCC2)CC1` (stereo not drawn) [Example 60, 2-[1-(2,4-dichloro-benzenesulfonyl)-3-oxo-piperazin-2-yl]-N-[4-(1-morpholin-4-yl-3-phenyl-propyl)-cyclohexyl]-acetamide], the values for the inhibition at 10 µM in experiment [1] and in experiment [2] were 104% and 8%, respectively. For the same compound, the inhibition at 1 µM in experiment [3] came out at 54%.

As to `CN1CCN(C(c2ccccc2)C2CCC(NC(=O)CC3C(=O)NCCN3S(=O)(=O)c3ccc(Cl)cc3Cl)CC2)CC1` (stereo not drawn) [Example 61, 2-[1-(2,4-dichloro-benzenesulfonyl)-3-oxo-piperazin-2-yl]-N-{4-[(4-methyl-piperazin-1-yl)-phenyl-methyl]-cyclohexyl}-acetamide], the values for the inhibition at 10 µM in experiment [1] and in experiment [2] were 104% and 39%, respectively. Also, the inhibition at 1 µM in experiment [3] was 34%.
